Reference: patent US7495018B2, “Substituted 1,3-thiazole compounds, their production and use” (Takeda Pharmaceutical Company Limited, priority 2000, dated 2009)

What was measured:
human p38 MAP kinase = biological target: T1, human p38 MAP kinase (Homo sapiens, UniProt Q16539); test: p38 MAP kinase inhibition, 32P incorporation into Myelin Basic Protein; assay type: biochemical; settings: active type p38 MAP kinase, Myelin Basic Protein substrate, 60 minutes at 30° C.; read-out: IC50 (concentration inhibiting 50% of 32P incorporation into the acid insoluble fraction)
T1 construct: FLAG (N); made in house; host or cells: Sf-21 insect cells, co-infected with baculoviruses BAC-HP38 and BAC-caMKK3
T1 sequence (Q16539 whole entry): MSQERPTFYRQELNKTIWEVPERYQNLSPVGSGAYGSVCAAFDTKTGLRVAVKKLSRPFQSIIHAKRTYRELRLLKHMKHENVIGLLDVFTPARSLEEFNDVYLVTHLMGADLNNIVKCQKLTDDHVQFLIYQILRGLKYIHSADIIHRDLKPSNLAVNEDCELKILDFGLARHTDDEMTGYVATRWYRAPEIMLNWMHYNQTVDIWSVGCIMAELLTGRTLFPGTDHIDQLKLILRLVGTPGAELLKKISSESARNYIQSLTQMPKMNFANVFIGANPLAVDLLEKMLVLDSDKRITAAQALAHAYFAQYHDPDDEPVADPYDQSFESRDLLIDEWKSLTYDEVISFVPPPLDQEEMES
Experimental: (1) Cloning of Human p38 MAP Kinase Gene and Preparation of Recombinant Baculovirus
(3) Preparation of Active Type p38 MAP Kinase
Sf-21 cells were inoculated on 100 mL Sf-900II SF medium (GIBCOBRL) to give 1×10^6 cells/mL, then, cultured for 24 hours at 27° C. Each 0.2 mL of virus stocks BAC-HP38 and BAC-caMKK3 of the recombinant baculovirus were added, then, cultured for further 48 hours. Cells were separated from the culture solution by centrifugal separation (3000 rpm, 10 min.), then, washed with PBS twice. The cells were suspended in 10 mL of Lysis buffer (25 mM HEPES (pH7.5), 1% TritonX, 130 mM NaCl, 1 mM EDTA, 1 mM DTT, 25 mM β-glycerophosphate, […], 1 mM APMSF, 1 mM Sodium orthovanadate), then, treatment by Homogenizer (POLYTRON) for 2 minutes at 20000 rpm was performed twice to lyse the cells. […]
(4) To 37.5 μL of a reaction solution (25 mM HEPES (pH 7.5), 10 mM Magnesium Acetate) containing 260 ng of active type p38 MAP kinase and 1 μg of Myelin Basic Protein was added 2.5 μL of a sample compound dissolved in DMSO, then, the mixture was kept at 30° C. for 5 minutes. […] After drying for 60 minutes at 45° C., 40 μL of Microscint 0 (Packard Japan) was added, and radiation activity was measured by Top Counter (Packard Japan). […]

[1] = test system: TNF-α production in THP-1 cells; test: Inhibitory activity of TNF-α production in LPS-stimulated THP-1 cells; assay type: cell-based; settings: Homo sapiens, LPS 5 μg/mL, 4 hours, TNF-α by ELISA, read-out: IC50 (concentration inhibiting 50% of TNF-α production)
Experimental: Measurement of Inhibitory Activity of TNF-α Production
THP-1 cells cultured in a PRMI 1640 medium (Life Technologies, Inc., USA) containing 1% inactivated fetal bovine serum (Life Technologies, Inc.) and 10 mM HEPES (pH 7.5) were inoculated on a 96 well plate to give 1×10^5 cells/well, then, 1 μL of a sample compound dissolved in DMSO was added. After incubation for 1 hour at 37° C. in a CO2 incubator, LPS (Wako Pure Chemical Industries Ltd.) was added to give a final concentration of 5 μg/mL. After incubation for 4 hours at 37° C. in a CO2 incubator, the supernatant was obtained by centrifugal separation. The TNF-α concentration in the supernatant was measured by ELISA (R&D Systems, Quantikine Kit). The concentration (IC50 value) of a sample compound necessary for inhibiting 50% of TNF-α production was calculated by PRISM 2.01 (GraphPad Software).

Cc1cccc(-c2nc(N(C)C(=O)c3ccc(C)nc3)sc2-c2ccnc(NC3CCCC3)c2)c1 [Example 46-4]
IC50 (human p38 MAP kinase): 17 nM | IC50 [1]: 82 nM | melting point: 176 to 177 °C
